Data from patent US20240189318A1, “THERAPEUTIC REGIMENS OF AN INHIBITOR OF THE ENZYMATIC ACTIVITY OF BRG1 AND BRM” (FOGHORN THERAPEUTICS INC., priority 2021, published 2024).

Columns and labels:
CYP2B6 mRNA = assay: CYP mRNA level (qRT-PCR) in cultured human hepatocytes, CYP2B6; settings: tested concentrations up to 50 nM
CYP3A activity = assay: CYP enzyme activity in cultured human hepatocytes, CYP3A4; assay type: in vitro ADME
CYP3A4 = CYP3A4 (Homo sapiens, UniProt P08684); assay: Depletion by recombinant CYP enzyme, CYP3A4; assay type: in vitro ADME; settings: recombinant 3A4
CYP3A4, sequence (P08684 whole entry): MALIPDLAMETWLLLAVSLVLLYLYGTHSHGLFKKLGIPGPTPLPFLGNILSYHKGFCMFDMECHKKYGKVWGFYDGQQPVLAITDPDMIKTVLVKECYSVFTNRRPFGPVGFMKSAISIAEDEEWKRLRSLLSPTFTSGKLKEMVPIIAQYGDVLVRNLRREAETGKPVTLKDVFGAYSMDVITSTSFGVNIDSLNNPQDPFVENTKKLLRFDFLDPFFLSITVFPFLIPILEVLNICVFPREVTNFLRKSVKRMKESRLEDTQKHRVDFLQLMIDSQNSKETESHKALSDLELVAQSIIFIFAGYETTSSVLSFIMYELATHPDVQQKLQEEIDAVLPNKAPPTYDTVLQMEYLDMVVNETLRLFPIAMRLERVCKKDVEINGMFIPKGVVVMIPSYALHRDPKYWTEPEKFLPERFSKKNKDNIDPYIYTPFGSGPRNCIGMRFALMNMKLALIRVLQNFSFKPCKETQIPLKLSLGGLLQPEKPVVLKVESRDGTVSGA

CYP3A4/5 = assay: CYP enzyme inhibition in pooled human liver microsomes, CYP3A4/5; settings: for inhibition at 10 µM / inhibition at 30 µM: Enzyme activity (% inhibition), CYP3A4/5
CYP3a23 mRNA = assay: CYP mRNA expression in cultured rat hepatocytes, CYP3a23; assay type: in vitro ADME; settings: 0.3 to 100 nM
CYP1A2 [1] = target: T1, CYP1A2 (Homo sapiens, UniProt P05177); assay: Depletion by recombinant CYP enzyme, CYP1A2; assay type: in vitro ADME; parameters: from tissue; host or cells: pooled human liver microsomes; settings: recombinant 1A2
T1 sequence (P05177 1-516): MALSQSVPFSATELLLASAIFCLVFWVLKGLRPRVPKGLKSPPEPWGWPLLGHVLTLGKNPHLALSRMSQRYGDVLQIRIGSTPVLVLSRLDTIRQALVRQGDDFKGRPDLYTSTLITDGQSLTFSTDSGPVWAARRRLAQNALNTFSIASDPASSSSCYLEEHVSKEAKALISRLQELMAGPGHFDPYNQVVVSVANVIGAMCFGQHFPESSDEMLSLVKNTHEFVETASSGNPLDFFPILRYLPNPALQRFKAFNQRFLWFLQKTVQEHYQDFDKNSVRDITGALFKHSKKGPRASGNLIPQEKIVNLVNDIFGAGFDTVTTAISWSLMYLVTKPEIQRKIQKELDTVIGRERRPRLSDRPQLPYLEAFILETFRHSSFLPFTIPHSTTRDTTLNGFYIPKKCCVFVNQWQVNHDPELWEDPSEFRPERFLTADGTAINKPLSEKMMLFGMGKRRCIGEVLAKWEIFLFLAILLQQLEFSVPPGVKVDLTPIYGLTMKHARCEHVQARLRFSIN

SBC-5 cells = assay: 10-day proliferation assay, negative control cells lacking BRG1 and BRM; settings: Homo sapiens, SBC-5, 240 h, read-out: mean IC50, cell proliferation
CYP2D6 = CYP2D6 (Homo sapiens, UniProt P10635); assay: Depletion by recombinant CYP enzyme, CYP2D6; assay type: in vitro ADME; parameters: from tissue; host or cells: pooled human liver microsomes; settings: recombinant 2D6
CYP2D6, sequence (P10635 whole entry): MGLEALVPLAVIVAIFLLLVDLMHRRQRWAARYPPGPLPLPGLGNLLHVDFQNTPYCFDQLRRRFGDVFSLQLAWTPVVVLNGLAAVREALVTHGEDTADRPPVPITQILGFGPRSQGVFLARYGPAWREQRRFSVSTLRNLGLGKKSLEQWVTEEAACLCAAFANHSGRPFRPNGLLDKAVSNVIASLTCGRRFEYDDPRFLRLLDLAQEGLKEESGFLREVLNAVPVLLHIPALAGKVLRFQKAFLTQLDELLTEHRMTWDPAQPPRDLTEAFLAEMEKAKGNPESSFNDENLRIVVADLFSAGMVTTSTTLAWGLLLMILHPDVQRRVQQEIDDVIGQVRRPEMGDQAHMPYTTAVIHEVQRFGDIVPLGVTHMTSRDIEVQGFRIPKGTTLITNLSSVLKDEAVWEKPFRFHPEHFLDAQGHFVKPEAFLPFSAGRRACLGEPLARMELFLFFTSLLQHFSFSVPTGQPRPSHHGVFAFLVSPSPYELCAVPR

249 other ATPases = assay: Additional profiling: binding to other ATPases in cells
CYP2C19 mRNA = assay: CYP mRNA level in cultured human hepatocytes, CYP2C19; assay type: in vitro ADME; settings: tested concentrations up to 50 nM
CYP1A2 [2] = target: T1, CYP1A2; assay: CYP enzyme inhibition in pooled human liver microsomes, CYP1A2; settings: for inhibition at 30 µM: human, microsomes, Enzyme activity (% inhibition), CYP1A2, probe Phenacetin
[3] = system: 92-1 uveal melanoma cells; assay: 92-1 uveal melanoma xenograft, Example 16; assay type: in vivo
92-1 cells = assay: 3-day cell proliferation assay (CellTiter-Glo); settings: Homo sapiens, 72 h, read-out: mean IC50, cell proliferation
[4] = system: Uveal melanoma cell lines, prostate cancer cells, acute leukemia cells, histocytic lymphoma cells; assay: 3-day growth inhibition, all cell lines of Table 6; assay type: cell-based; settings: 3 days
CYP2b1 mRNA = assay: CYP mRNA expression in cultured rat hepatocytes, CYP2b1; assay type: in vitro ADME; settings: 0.3 to 100 nM
[5] = system: cultured human hepatocytes; assay: Cytotoxicity to cultured human hepatocytes (morphology, LDH release); settings: second study, 0.3 to 50 nM, 72 hours
[6] = Depletion in Control Bactosomes and Reductase Control; assay type: in vitro ADME
CYP2C19 = CYP2C19 (Homo sapiens, UniProt P33261); assay: CYP enzyme inhibition in pooled human liver microsomes, CYP2C19; settings: for inhibition at 30 µM: human, microsomes, Enzyme activity (% inhibition), CYP2C19, probe S-Mephenytoin
CYP2C19, sequence (P33261 whole entry): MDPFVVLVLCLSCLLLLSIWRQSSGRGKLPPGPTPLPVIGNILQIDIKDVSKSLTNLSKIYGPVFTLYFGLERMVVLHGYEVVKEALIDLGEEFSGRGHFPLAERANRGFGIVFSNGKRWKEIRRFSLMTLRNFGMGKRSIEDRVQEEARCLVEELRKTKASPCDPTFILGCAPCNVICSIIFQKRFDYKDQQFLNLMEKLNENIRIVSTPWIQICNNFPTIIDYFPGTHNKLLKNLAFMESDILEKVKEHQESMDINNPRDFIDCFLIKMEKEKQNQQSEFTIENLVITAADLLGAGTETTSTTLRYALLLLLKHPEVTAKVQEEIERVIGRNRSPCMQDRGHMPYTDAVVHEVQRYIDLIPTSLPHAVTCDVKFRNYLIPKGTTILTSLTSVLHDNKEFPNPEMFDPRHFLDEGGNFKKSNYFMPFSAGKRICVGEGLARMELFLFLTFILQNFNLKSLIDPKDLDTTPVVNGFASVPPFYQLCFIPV

CHD4 enzyme = CHD4 enzyme (Homo sapiens, UniProt Q14839); assay: ADP-Glo ATPase assay, CHD4; assay type: biochemical; settings: concentrations up to 200 μM (n=3)
CHD4 enzyme, sequence (Q14839 whole entry, species assumed): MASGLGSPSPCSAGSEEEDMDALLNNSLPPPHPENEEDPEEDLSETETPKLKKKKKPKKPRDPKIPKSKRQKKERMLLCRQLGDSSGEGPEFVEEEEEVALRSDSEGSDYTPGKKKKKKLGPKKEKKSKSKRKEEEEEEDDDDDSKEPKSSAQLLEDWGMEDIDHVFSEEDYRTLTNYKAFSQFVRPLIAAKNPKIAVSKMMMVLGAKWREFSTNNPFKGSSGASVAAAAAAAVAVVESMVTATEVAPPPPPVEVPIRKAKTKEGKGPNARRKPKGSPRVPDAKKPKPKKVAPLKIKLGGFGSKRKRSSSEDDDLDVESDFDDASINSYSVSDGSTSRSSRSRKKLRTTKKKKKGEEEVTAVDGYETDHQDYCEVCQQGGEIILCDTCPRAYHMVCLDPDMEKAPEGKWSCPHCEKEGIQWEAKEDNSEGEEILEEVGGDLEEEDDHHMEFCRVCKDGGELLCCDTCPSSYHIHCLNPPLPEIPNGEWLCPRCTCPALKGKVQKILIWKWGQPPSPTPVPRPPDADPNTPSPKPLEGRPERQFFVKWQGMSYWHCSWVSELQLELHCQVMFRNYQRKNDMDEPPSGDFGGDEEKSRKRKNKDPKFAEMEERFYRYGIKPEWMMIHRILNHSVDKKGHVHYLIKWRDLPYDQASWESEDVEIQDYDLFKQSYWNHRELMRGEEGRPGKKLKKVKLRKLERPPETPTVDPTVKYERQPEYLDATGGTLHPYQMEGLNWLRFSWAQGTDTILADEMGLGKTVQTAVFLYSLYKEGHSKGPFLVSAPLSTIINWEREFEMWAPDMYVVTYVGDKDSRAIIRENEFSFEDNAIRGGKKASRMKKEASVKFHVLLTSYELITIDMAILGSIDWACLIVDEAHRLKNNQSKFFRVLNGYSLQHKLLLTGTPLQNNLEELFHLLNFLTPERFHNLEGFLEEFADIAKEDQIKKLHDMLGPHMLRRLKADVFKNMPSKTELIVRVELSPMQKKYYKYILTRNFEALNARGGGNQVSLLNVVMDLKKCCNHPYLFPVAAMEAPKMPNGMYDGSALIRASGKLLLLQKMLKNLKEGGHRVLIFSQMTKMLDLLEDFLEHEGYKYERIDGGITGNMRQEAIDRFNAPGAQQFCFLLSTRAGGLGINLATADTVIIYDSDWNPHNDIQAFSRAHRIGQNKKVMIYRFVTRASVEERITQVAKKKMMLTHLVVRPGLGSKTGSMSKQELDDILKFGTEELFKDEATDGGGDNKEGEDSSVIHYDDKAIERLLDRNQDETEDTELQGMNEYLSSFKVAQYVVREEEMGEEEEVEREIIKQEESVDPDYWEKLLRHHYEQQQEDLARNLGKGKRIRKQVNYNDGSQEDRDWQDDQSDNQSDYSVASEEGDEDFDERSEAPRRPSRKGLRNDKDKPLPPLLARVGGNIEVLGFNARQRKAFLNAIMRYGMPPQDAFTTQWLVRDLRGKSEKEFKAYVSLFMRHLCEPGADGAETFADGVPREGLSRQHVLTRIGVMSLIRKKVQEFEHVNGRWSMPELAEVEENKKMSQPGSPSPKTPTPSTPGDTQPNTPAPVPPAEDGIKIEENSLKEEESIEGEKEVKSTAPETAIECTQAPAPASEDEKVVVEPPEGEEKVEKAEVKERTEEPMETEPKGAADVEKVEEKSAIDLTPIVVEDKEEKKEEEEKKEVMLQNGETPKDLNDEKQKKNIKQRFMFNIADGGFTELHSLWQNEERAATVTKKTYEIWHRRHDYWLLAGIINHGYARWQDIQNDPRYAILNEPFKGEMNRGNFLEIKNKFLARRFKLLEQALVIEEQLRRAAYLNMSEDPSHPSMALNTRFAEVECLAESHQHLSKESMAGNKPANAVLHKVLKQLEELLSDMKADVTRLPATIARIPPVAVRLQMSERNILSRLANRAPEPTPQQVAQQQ

[7] = PHLM, concentrations up to 30 μM
[8] = human, pooled human liver microsomes, probe midazolam (1′-hydroxylation), 30 Minutes Pre-incubation with NADPH, probe Midazolam, PHLM
[9] = human, pooled human liver microsomes, probe midazolam (1′-hydroxylation), 30 Minutes Pre-incubation without NADPH, probe Midazolam, PHLM
[10] = human, pooled human liver microsomes, probe midazolam (1′-hydroxylation), No Pre-incubation, probe Midazolam, PHLM
[11] = human, pooled human liver microsomes, probe testosterone (6β-hydroxylation), 30 Minutes Pre-incubation with NADPH, probe Testosterone, PHLM
[12] = human, pooled human liver microsomes, probe testosterone (6β-hydroxylation), 30 Minutes Pre-incubation without NADPH, probe Testosterone, PHLM
[13] = human, pooled human liver microsomes, probe testosterone (6β-hydroxylation), No Pre-incubation, probe Testosterone, PHLM
[14] = 30 Minutes Pre-incubation with NADPH, PHLM
[15] = 30 Minutes Pre-incubation without NADPH, PHLM

COC[C@H](NC(=O)c1ccn(S(C)(=O)=O)c1)C(=O)Nc1nc(-c2cccc(N3C[C@@H](C)O[C@@H](C)C3)n2)cs1 [compound of formula (I), N-((S)-1-((4-(6-(cis-2,6-dimethylmorpholino)pyridin-2-yl)thiazol-2-yl)amino)-3-methoxy-1-oxopropan-2-yl)-1-(methylsulfonyl)-1H-pyrrole-3-carboxamide]
effect on mRNA expression of CYP2B6 (CYP2B6 mRNA): minimal effect
effect on CYP3A activity (CYP3A activity; 0.3 to 50 nM): minimal
decrease in CYP3A activity (CYP3A activity; concentrations 1 to 50 nM): ≤ 32%
% Remaining of Compound of Formula (I) (CYP3A4; 0.1 μM): 0.0%
% Remaining of Compound of Formula (I) (CYP3A4; 1 μM): 1.2%
time-dependent inhibition of CYP3A4/5 (CYP3A4/5; PHLM): weak time-dependent inhibitor
direct inhibitory activity (% inhibition) toward CYP3A (CYP3A4/5; [7]): < 50%
IC50 (CYP3A4/5; human, pooled human liver microsomes): > 30 µM
inhibition at 30 min, 10 µM (CYP3A4/5; human, pooled human liver microsomes, increase in CYP3A4/5 inhibition by preincubation, concentrations of ≤10 μM): < 20%
inhibition at 10 µM (CYP3A4/5; [8]): 25.3%
inhibition at 30 µM (CYP3A4/5; [8]): 40.2%
inhibition at 10 µM (CYP3A4/5; [9]): 6.5%
inhibition at 30 µM (CYP3A4/5; [9]): -1%
inhibition at 10 µM (CYP3A4/5; [10]): 18.2%
inhibition at 30 µM (CYP3A4/5; [10]): 13.6%
inhibition at 10 µM (CYP3A4/5; [11]): 27.4%
inhibition at 30 µM (CYP3A4/5; [11]): 49.3%
inhibition at 10 µM (CYP3A4/5; [12]): 10.5%
inhibition at 30 µM (CYP3A4/5; [12]): 20.8%
inhibition at 10 µM (CYP3A4/5; [13]): 9.7%
inhibition at 30 µM (CYP3A4/5; [13]): 18.4%
concentrations at which CYP3a23 mRNA expression was decreased ≥50% (CYP3a23 mRNA): ≥ 10 nM
% Remaining of Compound of Formula (I) (CYP1A2 [1]; 0.1 μM): 89.4%
% Remaining of Compound of Formula (I) (CYP1A2 [1]; 1 μM): 113%
IC50 (SBC-5 cells): > 25 µM
% Remaining of Compound of Formula (I) (CYP2D6; 0.1 μM): 85.0%
% Remaining of Compound of Formula (I) (CYP2D6; 1 μM): 93.5%
binding to 249 other ATPases in cells (249 other ATPases): little binding
effect on mRNA expression of CYP2C19 (CYP2C19 mRNA): minimal effect
IC50 (CYP1A2 [2]): > 30 µM
direct inhibitory activity (% inhibition) toward CYP1A2 (CYP1A2 [2]; [7]): < 50%
inhibition at 30 µM (CYP1A2 [2]; [14]): 11.8%
inhibition at 30 µM (CYP1A2 [2]; [15]): 8.5%
inhibition at 30 µM (CYP1A2 [2]; No Pre-incubation, PHLM): 11.4%
tumor response at the highest dose ([3]; […], once daily oral gavage): tumor regression
tolerability based on % body weight change ([3]; all treatments): well tolerated
tumor growth inhibition ([3]; nude mice, 92-1 xenograft, once daily oral gavage, 3 weeks, increasing doses): tumor growth inhibition in a dose-dependent manner
IC50 (92-1 cells): 0.00113 µM
growth inhibition in all the cell lines [4]: potent growth inhibition
concentrations at which CYP2b1 mRNA expression was decreased ≥50% (CYP2b1 mRNA): ≥ 10 nM
cytotoxicity to cultured human hepatocytes [5]: no evidence of cytotoxicity
% Remaining of Compound of Formula (I) ([6]; Control Bactosomes, 0.1 μM): 90.2%
% Remaining of Compound of Formula (I) ([6]; Control Bactosomes, 1 μM): 98.3%
% Remaining of Compound of Formula (I) ([6]; Reductase Control, 0.1 μM): 78.3%
% Remaining of Compound of Formula (I) ([6]; Reductase Control, 1 μM): 109%
IC50 (CYP2C19): > 30 µM
direct inhibitory activity (% inhibition) toward CYP2C19 (CYP2C19; [7]): < 50%
inhibition at 30 µM (CYP2C19; [14]): 28.1%
inhibition at 30 µM (CYP2C19; [15]): 21.4%
inhibition at 30 µM (CYP2C19; No Pre-incubation, PHLM): 23.1%
inhibition of the ATPase activity of the CHD4 enzyme (CHD4 enzyme): did not inhibit
